{"source": "patent US8993316B2", "about": "“Methods and compositions for gene therapy and GHRH therapy” (priority 2011, dated 2015)", "origin": "cited, not measured here", "key": {"[1]": {"assay": "not given", "remark": "listed apart in the source"}}}
{"compound": "COc1cc(CC(C)N)c(OC)cc1I", "note": "(stereo not drawn) [DOI, 2,5-dimethoxy-4-iodoamphetamine]", "values": [{"measurement": "rough half-life", "setting": "in vivo", "value": "12 to 15", "unit": "h"}, {"measurement": "therapeutic effect duration", "setting": "long acting", "value": "≥ 30", "unit": "h"}]}
{"compound": "GHRH: growth hormone releasing hormone, a peptide hormone", "values": [{"measurement": "half-life after injection", "setting": "[1]", "value": "roughly 8 minutes"}]}
